Where two headings read alike, the source gives them in different places.
Tests used:
GP2D cells = test: GP2D proliferation assay (120 h) (colorectal cancer, G12D); assay type: cell-based
How it was run: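 500 cells/well in DMEM + GlutaMAX + 10% FCS, exposed to a logarithmic compound dose series (DMSO-normalized) for 120 h. Viability read by CellTiter-Glo luminescence as percent of DMSO control, with an untreated T0 read at dosing; IC50 from four-parameter non-linear regression.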

MKN1 cells = test: MKN1 CTG proliferation assay (120 h) (gastric cancer, wt amplified); assay type: cell-based
How it was run: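 MKN1 gastric cancer cells (200–500 per well, RPMI + 10% FCS) given a logarithmic compound dose series and incubated 120 h. Viability by CellTiter-Glo luminescence as percent of DMSO controls. IC50 by four-parameter non-linear regression.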

KRAS (WT)::SOS1 = KRAS (WT)::SOS1 (Homo sapiens (Human), UniProt P01116, C118S); test: KRAS::SOS1 AlphaScreen binding assay, KRAS WT
Chain of KRAS (WT)::SOS1 (P01116 other isoform, or with tags, fused parts or gaps C118S): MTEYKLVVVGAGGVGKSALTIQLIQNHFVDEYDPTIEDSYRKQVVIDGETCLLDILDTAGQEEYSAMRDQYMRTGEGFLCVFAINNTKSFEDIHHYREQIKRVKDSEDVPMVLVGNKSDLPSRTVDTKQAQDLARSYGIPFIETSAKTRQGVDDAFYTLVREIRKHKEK
How it was run: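 AlphaScreen measurement of compound disruption of biotinylated, GDP-loaded KRAS 1-169 (10 nM; G12C 7.5 nM) binding to GST-SOS1 564-1049 (5 nM with G12D/G12C, 10 nM otherwise), with 10 μM GDP in PBS/0.1% BSA/0.05% Tween 20. Timing was 30 min compound preincubation, then 60 min with beads at room temperature; top concentration 100 μM, 4-parameter IC50.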

[1] = Homo sapiens, MKN-1, assay 2, CTG 120 h, read-out: MKN1 (assay 2) IC50
[2] = Homo sapiens, MKN-1, assay 3, CTG 120 h, read-out: MKN1 (assay 3) IC50

Compound | IC50 (GP2D cells) | IC50 (MKN1 cells; [2]) | IC50 (KRAS (WT)::SOS1) | further results
C[C@H](Oc1cc(-c2ccn(C)n2)nc(-c2onc3c2CCC[C@@]32CCCc3sc(N)c(C#N)c32)n1)[C@@H]1CCCN1C [I-21] | 546 nM | – | – | IC50 (MKN1 cells; assay 3, CTG 120 h, read-out: MKN1 (assay 3) IC50): 149 nM
CO[C@H]1CCN(C)[C@@H]1[C@H](C)Oc1cc(N2CCNC3(CC3)C2)nc(-c2onc3c2CCC[C@@]32CCCc3sc(N)c(C#N)c32)n1 [I-49] | 1 nM | 152 nM | – | IC50 (MKN1 cells; [1]): 335 nM
C[C@H](Oc1cc(N2CCN(C)C3(COC3)C2)nc(-c2noc3c2CCC[C@@]32CCCc3sc(N)c(C#N)c32)n1)[C@@H]1CCCN1C [II-13] | 9 nM | – | 3 nM | –
CO[C@@H]1C[C@@H]([C@H](C)Oc2cc(N3CCN(C)C4(CC4)C3)nc(-c3onc4c3CCC[C@@]43CCCc4sc(N)c(C#N)c43)n2)N(C)C1 [I-50] | 10 nM | 627 nM | – | IC50 (MKN1 cells; [1]): 785 nM
C[C@H](Oc1cc(N2CCNC3(CCC3)C2)nc(-c2onc3c2CCC[C@@]32CCCc3sc(N)c(C#N)c32)n1)[C@@H]1CCCN1C [I-3] | 2 nM | – | 7 nM | –
C[C@H](Oc1cc(-n2ccc(C(=O)N3CCCC3)n2)nc(-c2noc3c2CCC[C@@]32CCCc3sc(N)c(C#N)c32)n1)[C@@H]1CCCN1C [II-19] | 136 nM | 47 nM | – | –
CCOC(=O)c1ccn(-c2cc(O[C@@H](C)[C@@H]3CCCN3C)nc(-c3noc4c3CCC[C@@]43CCCc4sc(N)c(C#N)c43)n2)n1 [II-23] | – | 172 nM | – | –
C[C@H](Oc1cc(Cl)nc(-c2onc3c2CCC[C@@]32CCCc3sc(N)c(C#N)c32)n1)[C@@H]1CCCN1C [I-1] | – | 1730 nM | – | –
CO[C@H]1CCN(C)[C@@H]1[C@H](C)Oc1cc(-n2ccc(C(=O)N[C@H]3CCOC3)n2)nc(-c2onc3c2CCC[C@@]32CCCc3sc(N)c(C#N)c32)n1 [I-54] | – | 26 nM | – | –
C[C@H](Oc1cc(N2CC[C@H](N3CCCC3)C2)nc(-c2noc3c2CCC[C@@]32CCCc3sc(N)c(C#N)c32)n1)[C@@H]1CCCN1C [II-14] | 6 nM | – | 15 nM | –
C[C@H](Oc1cc(N2C[C@H](C)N(C)[C@@H](C)C2)nc(-c2onc3c2CCC[C@@]32CCCc3sc(N)c(C#N)c32)n1)[C@@H]1CCCN1C [I-43] | 143 nM | – | – | –
C[C@H](Oc1cc(-n2ccc(C(=O)NC3COC3)n2)nc(-c2noc3c2CCC[C@@]32CCCc3sc(N)c(C#N)c32)n1)[C@@H]1CCCN1C [II-25] | – | – | 16 nM | –
C[C@H](Oc1cc(N2CCNC(C)(C)C2)nc(-c2noc3c2CCC[C@@]32CCCc3sc(N)c(C#N)c32)n1)[C@@H]1CCCN1C [II-32] | 5 nM | – | – | –
C[C@H](Oc1cc(-c2ccn([C@H]3CCCOC3)n2)nc(-c2noc3c2CCC[C@@]32CCCc3sc(N)c(C#N)c32)n1)[C@@H]1CCCN1C [II-42] | – | – | 5 nM | –
CO[C@@H]1C[C@@H]([C@H](C)Oc2cc(-c3ccn(C)n3)nc(-c3onc4c3CCC[C@@]43CCCc4sc(N)c(C#N)c43)n2)N(C)C1 [I-23] | 1170 nM | – | – | –
C[C@H](Oc1cc(N2C[C@@H](N(C)C)[C@@H](O)C2)nc(-c2noc3c2CCC[C@@]32CCCc3sc(N)c(C#N)c32)n1)[C@@H]1CCCN1C [II-10] | 11 nM | 1260 nM | – | –
C[C@H](Oc1nc(-c2onc3c2CCC[C@@]32CCCc3sc(N)c(C#N)c32)cc(N2CCNC3(CC3)C2)n1)[C@@H]1CCCN1C [I-2] | – | – | 42 nM | –
C[C@H](Oc1cc(N2CCNCC2)nc(-c2noc3c2CCC[C@@]32CCCc3sc(N)c(C#N)c32)n1)[C@@H]1CCCN1C [II-45] | – | 1480 nM | – | –
COCCNC(=O)c1ccn(-c2cc(O[C@@H](C)[C@@H]3[C@@H](OC)CCN3C)nc(-c3onc4c3CCC[C@@]43CCCc4sc(N)c(C#N)c43)n2)n1 [I-55] | – | 39 nM | – | –
CN[C@H]1CCN(c2cc(O[C@@H](C)[C@@H]3CCCN3C)nc(-c3noc4c3CCC[C@@]43CCCc4sc(N)c(C#N)c43)n2)C1 [II-35] | 31 nM | – | 13 nM | –
C[C@H](O)Cn1ccc(-c2cc(O[C@@H](C)[C@@H]3CCCN3C)nc(-c3onc4c3CCC[C@@]43CCCc4sc(N)c(C#N)c43)n2)n1 [I-31] | 588 nM | – | – | –
C[C@H](Oc1cc(N2CCC(N(C)C)CC2)nc(-c2noc3c2CCC[C@@]32CCCc3sc(N)c(C#N)c32)n1)[C@@H]1CCCN1C [II-48] | 65 nM | – | 34 nM | –

Compound | IC50 (GP2D cells) | IC50 (MKN1 cells; [2]) | IC50 (KRAS (WT)::SOS1) | further results
Cc1ccc(-c2cc(O[C@@H](C)[C@@H]3CCCN3C)nc(-c3onc4c3CCC[C@@]43CCCc4sc(N)c(C#N)c43)n2)cn1 [I-28] | – | 1280 nM | 18 nM | –
COCCNC(=O)c1ccn(-c2cc(O[C@@H](C)[C@@H]3CCCN3C)nc(-c3onc4c3CCC[C@@]43CCCc4sc(N)c(C#N)c43)n2)n1 [I-58] | – | 17 nM | – | IC50 (MKN1 cells; Homo sapiens, MKN-1, assay 1, CTG 120 h, read-out: MKN1 (assay 1) IC50): 25 nM
C[C@H](Oc1cc(N2CCNC3(CCC3)C2)nc(-c2noc3c2CCC[C@@]32CCCc3sc(N)c(C#N)c32)n1)[C@@H]1CCCN1C [II-40] | 5 nM | – | – | –
[2H]C([2H])([2H])N1C[C@H](F)C[C@H]1[C@H](C)Oc1cc(N2CCN(C)C3(CC3)C2)nc(-c2noc3c2CCC[C@@]32CCCc3sc(N)c(C#N)c32)n1 [II-209] | – | 670 nM | – | –
C[C@H](Oc1nc(-c2noc3c2CCC[C@@]32CCCc3sc(N)c(C#N)c32)cc(N2C[C@H](C)N[C@@H](C)C2)n1)[C@@H]1CCCN1C [II-46] | – | – | 53 nM | –
C[C@H](Oc1cc(N2CCN(C)C3(CC3)C2)nc(-c2onc3c2CCC[C@@]32CCCc3sc(N)c(C#N)c32)n1)[C@@H]1CCCN1C [I-41] | 8 nM | – | 5 nM | –
C[C@H]1CN(C)CCCN1c1cc(N2CC[C@H](N(C)C)C2)nc(-c2noc3c2CCC[C@@]32CCCc3sc(N)c(C#N)c32)n1 [II-16] | 56 nM | – | – | –
C[C@H](Oc1cc(N2CCNC3(COC3)C2)nc(-c2noc3c2CCC[C@@]32CCCc3sc(N)c(C#N)c32)n1)[C@@H]1CCCN1C [II-31] | 1 nM | 30 nM | – | –
C[C@H](Oc1cc([C@H]2CCN(C)C2)nc(-c2noc3c2CCC[C@@]32CCCc3sc(N)c(C#N)c32)n1)[C@@H]1CCCN1C [II-38] | 4 nM | – | – | –
CO[C@H]1CCN(C)[C@@H]1[C@H](C)Oc1cc(-n2ccc(CC(=O)NC(C)C)n2)nc(-c2onc3c2CCC[C@@]32CCCc3sc(N)c(C#N)c32)n1 [I-48] | – | 17 nM | – | –
C[C@H](NC(=O)c1ccn(-c2cc(O[C@@H](C)[C@@H]3CCCN3C)nc(-c3onc4c3CCC[C@@]43CCCc4sc(N)c(C#N)c43)n2)n1)c1ccccn1 [I-59] | – | 26 nM | – | –
C[C@H](Oc1cc(N2CCN(C)C3(COC3)C2)nc(-c2onc3c2CCC[C@@]32CCCc3sc(N)c(C#N)c32)n1)[C@@H]1C[C@@H](F)CN1C [I-37] | 24 nM | – | 4 nM | –
C[C@H](Oc1cc(-c2cnsc2)nc(-c2onc3c2CCC[C@@]32CCCc3sc(N)c(C#N)c32)n1)[C@@H]1CCCN1C [I-27] | – | 396 nM | – | –
C[C@H](Oc1cc(-n2ccc(C(=O)NC3(C)COC3)n2)nc(-c2noc3c2CCC[C@@]32CCCc3sc(N)c(C#N)c32)n1)[C@@H]1CCCN1C [II-26] | – | – | 3 nM | –
C[C@H](Oc1cc(-c2ccn(C[C@@H](C)O)n2)nc(-c2onc3c2CCC[C@@]32CCCc3sc(N)c(C#N)c32)n1)[C@@H]1CCCN1C [I-30] | 811 nM | – | 3 nM | –
CO[C@H]1CCN(C)[C@@H]1[C@H](C)Oc1cc(-n2ccc(C(=O)N[C@@H]3CCOC3)n2)nc(-c2onc3c2CCC[C@@]32CCCc3sc(N)c(C#N)c32)n1 [I-53] | – | 48 nM | – | –
C[C@H](Oc1cc(-n2ccc(C(=O)N[C@H]3CCOC3)n2)nc(-c2onc3c2CCC[C@@]32CCCc3sc(N)c(C#N)c32)n1)[C@@H]1CCCN1C [I-57] | – | 19 nM | – | –
C[C@H](Oc1cc(N2C[C@@H](N(C)C)[C@@H](F)C2)nc(-c2noc3c2CCC[C@@]32CCCc3sc(N)c(C#N)c32)n1)[C@@H]1CCCN1C [II-11] | 78 nM | – | 4 nM | –
C[C@H](Oc1cc(-c2ccn(C)n2)nc(-c2noc3c2CCC[C@@]32CCCc3sc(N)c(C#N)c32)n1)[C@@H]1C[C@@H](F)CN1C [II-27] | 408 nM | 116 nM | – | –
[2H]C([2H])([2H])N1C[C@H](F)C[C@H]1[C@H](C)Oc1cc(N2CCNC3(CC3)C2)nc(-c2noc3c2CCC[C@@]32CCCc3sc(N)c(C#N)c32)n1 [II-208] | – | 245 nM | 4 nM | IC50 (MKN1 cells; [1]): 451 nM
C[C@H](Oc1cc(-n2ccc(C(=O)N(C)C3COC3)n2)nc(-c2onc3c2CCC[C@@]32CCCc3sc(N)c(C#N)c32)n1)[C@@H]1CCCN1C [I-60] | – | 32 nM | – | –
C[C@H](Oc1cc(N2CC[C@@H](N(C)C)C2)nc(-c2noc3c2CCC[C@@]32CCCc3sc(N)c(C#N)c32)n1)[C@@H]1CCCN1C [II-47] | 105 nM | – | – | –

— US20240174690A1, “ANNULATED 2-AMINO-3-CYANO THIOPHENES AND DERIVATIVES FOR THE TREATMENT OF CANCER” (BOEHRINGER INGELHEIM INTERNATIONAL GMBH, priority 2021, published 2024)
